{"source": "patent US5569591A", "about": "“Analytical or monitoring apparatus and method” (priority 1990, dated 1996)", "key": {"[1]": {"biological_target": "T1, H+-ATPase in the plasma membrane of Saccharomyces cerevisiae (Saccharomyces cerevisiae, UniProt P05030)", "T1 sequence (P05030 whole entry)": "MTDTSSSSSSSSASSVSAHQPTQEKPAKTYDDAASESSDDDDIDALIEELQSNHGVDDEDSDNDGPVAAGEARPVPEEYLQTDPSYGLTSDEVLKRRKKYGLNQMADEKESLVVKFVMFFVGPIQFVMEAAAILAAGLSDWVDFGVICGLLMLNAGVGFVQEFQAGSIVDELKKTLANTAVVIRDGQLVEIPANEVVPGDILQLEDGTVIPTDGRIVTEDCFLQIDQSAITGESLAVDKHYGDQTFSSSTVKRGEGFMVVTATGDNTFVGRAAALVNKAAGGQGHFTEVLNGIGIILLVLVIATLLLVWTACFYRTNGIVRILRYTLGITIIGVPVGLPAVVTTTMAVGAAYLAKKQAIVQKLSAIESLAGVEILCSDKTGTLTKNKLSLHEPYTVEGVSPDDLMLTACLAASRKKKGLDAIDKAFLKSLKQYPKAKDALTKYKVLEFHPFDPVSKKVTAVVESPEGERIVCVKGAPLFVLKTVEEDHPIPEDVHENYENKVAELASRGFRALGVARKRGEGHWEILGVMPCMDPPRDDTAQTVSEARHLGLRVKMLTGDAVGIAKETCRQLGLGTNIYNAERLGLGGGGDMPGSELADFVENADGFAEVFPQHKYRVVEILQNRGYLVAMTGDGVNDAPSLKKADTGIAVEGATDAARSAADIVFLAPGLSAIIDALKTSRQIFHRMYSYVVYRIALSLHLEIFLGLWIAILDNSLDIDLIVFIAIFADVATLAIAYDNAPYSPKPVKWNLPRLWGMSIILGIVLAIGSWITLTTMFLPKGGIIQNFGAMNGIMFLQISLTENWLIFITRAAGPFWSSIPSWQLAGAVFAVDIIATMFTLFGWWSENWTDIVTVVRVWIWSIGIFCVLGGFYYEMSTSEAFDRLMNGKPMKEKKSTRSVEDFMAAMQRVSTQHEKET", "type": "cell-based", "design": "endogenous in cells; host or cells: intact S. cerevisiae cells in suspension", "description": "The spectrometer 10 comprises two electrochemical cells 11, 12. Cell 11 is a test cell containing a sample of the biological system whose nonlinear dielectric properties are being studied. In this example the biological system comprises a system comprising a suspension of S. cerevisiae. The cell concentration was approximately 50 mg dry wt. ml^-1 in a medium of 20 mM KH2 PO4, 30 mM KCl, 1 mM MgCl2 pH 6.5. Tests were carried out within four hours of preparing the suspension. Cell 12 is a reference cell comprising the supernatant of the test suspension, the conductivity of which was adjusted with distilled water to compensate for the volume fraction of cells present in the sample, to be identical to that of the sample at the frequency of interest. The cells 11, 12 were connected to a sinusoidal oscillator 13, via a Data Translation Analog to Digital converter, to an 80386 microcomputer 14.\nThe sample cell suspension was pipetted into the electrode cell 11 (FIG. 1), the test waveform applied to the (outer) current electrodes, and the data logged from the (inner) voltage electrodes at a sampling frequency (which was typically at 25 times the frequency of the fundamental) and for a time specified by the operator. Time was specified in terms of a number of blocks, each block consisting of 512 samples. At the end of the time specified, the data were Fourier transformed as follows. […]"}, "[2]": {"biological_target": "vanadate-resistant ATPase of a mutant strain of yeast (Saccharomyces cerevisiae, UniProt P05030)", "sequence (P05030 whole entry, change not shown)": "as the sequence (P05030 whole entry) above", "details": "mutant strain with vanadate-resistant ATPase"}, "[3]": {"biological_target": "T1, H+-ATPase in the plasma membrane of Saccharomyces cerevisiae", "details": "cells metabolising added D-glucose", "description": "As described above, a 3rd harmonic was reproducibly observed with resting cell suspensions of S. cerevisiae. This could be ascribed to the presence of the H^+ -ATPase in this organism, and should be expected to reflect a situation in which the enzyme was at static head. An experiment to determine how this behaviour might be modified when the enzyme was driven away from static head and was able (or expected) to do work was carried out. Resting cells were taken, their (usual) non-linear dielectric spectrum recorded, and a metabolisable carbon source (D-glucose) added."}}, "data": [{"molecule": "C(=NC(c1ccccc1)c1ccccc1)=NC(c1ccccc1)c1ccccc1", "note": "[dibenzhydryl carbodiimide]", "values": [{"measurement": "generation of harmonics", "setting": "[1]; 0.2 pmol/mg dry wt of cells", "result": "completely abolished"}]}, {"molecule": "sodium metavanadate", "values": [{"measurement": "generation of the 3rd harmonic", "setting": "[1]; 1 mM sodium metavanadate, FIG. 12", "result": "essentially completely abolished"}, {"measurement": "generation of harmonics in the presence of vanadate", "setting": "[2]", "result": "vanadate resistant"}, {"measurement": "even (2nd and 4th) harmonics in the presence of vanadate", "setting": "[3]", "result": "vanadate-sensitive"}]}]}
